Data published in PMC2120756 (The Journal of Cell Biology, 1996).

Molecular target: NHE-1 (Na+/H+ exchanger isoform 1) (Homo sapiens, UniProt P19634)
Test: BCECF pHi recovery from NH4Cl acid load
Assay type: cell-based

Sequence of NHE-1 (Na+/H+ exchanger isoform 1) (P19634 whole entry, canonical isoform): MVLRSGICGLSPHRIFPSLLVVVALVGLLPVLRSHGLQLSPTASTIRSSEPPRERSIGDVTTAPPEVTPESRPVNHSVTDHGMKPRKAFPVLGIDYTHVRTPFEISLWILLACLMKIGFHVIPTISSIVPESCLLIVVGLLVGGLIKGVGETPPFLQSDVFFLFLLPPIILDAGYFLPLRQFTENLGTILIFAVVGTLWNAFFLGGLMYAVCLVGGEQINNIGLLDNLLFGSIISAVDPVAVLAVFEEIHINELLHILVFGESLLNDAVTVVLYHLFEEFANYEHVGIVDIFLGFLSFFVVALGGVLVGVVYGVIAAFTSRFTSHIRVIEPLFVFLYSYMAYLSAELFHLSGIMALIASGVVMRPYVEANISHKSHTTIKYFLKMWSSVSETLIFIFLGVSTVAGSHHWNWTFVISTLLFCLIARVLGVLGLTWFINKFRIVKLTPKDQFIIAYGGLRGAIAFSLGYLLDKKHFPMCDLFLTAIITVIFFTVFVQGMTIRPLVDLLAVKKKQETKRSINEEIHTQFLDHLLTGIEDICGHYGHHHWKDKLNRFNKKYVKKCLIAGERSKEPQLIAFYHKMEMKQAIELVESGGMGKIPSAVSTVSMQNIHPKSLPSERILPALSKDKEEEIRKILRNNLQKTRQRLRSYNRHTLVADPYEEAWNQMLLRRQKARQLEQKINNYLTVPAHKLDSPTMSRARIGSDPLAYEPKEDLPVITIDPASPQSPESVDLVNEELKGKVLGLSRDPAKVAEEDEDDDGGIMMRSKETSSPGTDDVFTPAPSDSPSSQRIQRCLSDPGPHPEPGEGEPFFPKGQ

SMILES: CS(=O)(=O)c1cc(C(=O)N=C(N)N)ccc1N1CCCCC1 [HOE694]
- IC50: ~10 nM
